From paper PMC3781056, “New Pyrazolopyrimidine Inhibitors of Protein Kinase D as Potent Anticancer Agents for Prostate Cancer Cells” (PLoS ONE, 2013)
Where two headings read alike, the source gives them in different places.

Columns and labels:
PC3 cells [1] = assay: Wound healing assay (cell migration); format: cell-based; settings: PC3, 30 µM, 22 h after wounding; control completely closed
Experimental: (§1) A.1-NA- PP1 blocked prostate cancer cell migration. PC3 cells were grown to confluence in 6-well plates. Monolayer was wounded and imaged immediately (0 h). […] Percentage wound healing was calculated as the percent of healed wound area as compared to the original wound. […] After 20 h, noninvasive cells were removed and invasive cells were fixed in 100% methanol, stained in 0.4% hematoxylin solution, and photographed. The number of cells that invaded the Matrigel matrix was determined by cell counts in 6 fields relative to the number of cells that migrated through the control insert. Percentage invasion was calculated as the percent of the cells invaded through Matrigel inserts vs. the total cells migrated through the control inserts. C. […] DU145 cells were infected with null, PKD1, and PKD3 adenoviruses (Adv-null, Adv-PKD1, and Adv-PKD3) at 100 MOI. After 24 h, cells were replated in control and Matrigel inserts, and a Matrigel invasion assay was conducted as described above. The overexpression of PKD1 and PKD3 was confirmed by Western blotting analysis (images below the graphs). […]
PC3 or DU145 cells were grown to confluence in 6-well plates. […] The wound gap was measured, and % wound healing was calculated. The average % wound healing was determined based on at least 6 measurements of the wound gap.

PC3 cells [2] = assay: MTT assay; format: cell-based
Experimental: PC3 cells were plated in triplicates in 24-well plates. Cells were allowed to attach overnight. […] Cells were counted daily for a total of 5 days. Fresh media and inhibitor were added every 2 days. The means of triplicate determinations were plotted over time. The experiment was repeated twice and results from one representative experiment are shown. […] PC3 cells were seeded into 96-well plates (3000 cells/well) and were then incubated in media containing 0.3–100 µM inhibitors for 72 h. MTT solution was added to each well and incubated for 4 h. Optical density was read at 570 nm to determine cell viability. The IC50 was determined as the mean of two independent experiments for each compound. C. […] Cell cycle distribution was determined by flow cytometry after propidium iodide labeling of fixed cells. Statistical significance was determined by unpaired t-test and is indicated. **, p<0.01; ***, p<0.001. […] The label 1-NA-PP1 is taken from panels A and C, where it is the only substance named in the picture.
PC3 cells were seeded into 96-well plates (3000 cells/well) and allowed to attach overnight. Cells were then incubated in media containing […] inhibitors for 72 h. […] The plate was mix by shaking for 5 min and the optical density was determined at 570 nm.

[3] = system: DU145 cells infected with Adv-PKD1 or Adv-PKD3; format: cell-based
Experimental: DU145 cells were infected with null, PKD1, and PKD3 adenoviruses (Adv-null, Adv-PKD1, and Adv-PKD3) at 100 MOI. […] The number of cells that migrated was determined by cell counts in 6 fields. Percentage migration was calculated as the percent of the Adv-null treated with vehicle DMSO (set to 100%). The experiment was repeated three times and data from a representative experiment are shown.

DU145 cells = assay: Matrigel invasion assay; format: cell-based; settings: Homo sapiens, DU-145, 20 h, read-out: inhibition of cell invasion compared with control
Experimental: as §1, with “MOI.” for “MOI. After 24 h, cells were replated in control and Matrigel inserts, and a Matrigel invasion assay was conducted as described above. The overexpression of PKD1 and PKD3 was confirmed by Western blotting analysis (images below the graphs).”
DU145 cells (4.0×10^4 cells/ml) in RPMI containing 0.1% fetal bovine serum (FBS) were seeded into the top chamber of BioCoat control inserts (pore size 8 µm) or BioCoat Matrigel invasion inserts with Matrigel-coated filters (BD Pharmingen). […] After staining, cells were counted under a microscope (200× magnification). The percentage invasion was determined by cell counts in […] of the number of cells that invaded the Matrigel matrix relative to the number of cells that migrated through the control insert.

PKD isoforms = assay: Radiometric PKD kinase assay, summary statement for PKD isoforms; format: biochemical, human; settings: approximate, all PKD isoforms; read-out: concentration that blocked 50% of PKD activity
Experimental: Recombinant human PKD1, 2, or 3 proteins were incubated in a mixture containing a peptide substrate derived from a PKD substrate, HDAC-5, and 10 different concentrations of the two compounds.

## CC(C)(C)n1nc(-c2cccc3ccccc23)c2c(N)ncnc21 [Compound 1-NA-PP1, 1-(t-Butyl)-3-(naphthalen-1-yl)-1H-pyrazolo[3,4-d]pyrimidin-4-amine]
PC3 cells [1]
  wounded area remaining open: 88.6%
PC3 cells [2]; Homo sapiens, PC-3, 72 h, read-out: IC50 for cell death (MTT), PC3 cells, 72 h
  IC50: 23.3 ± 5.7 µM
PC3 cells [2]; read-out: IC50 for cell death (MTT), PC3 cells, 72 h
  IC50: ~20 µM
[3]
  effect of PKD1 or PKD3 overexpression on inhibition of cell migration: did not affect
DU145 cells
  inhibition at 30 µM: > 60%
PKD isoforms
  IC50: ~0.1 µM
